The target of series [1] is T1, cGMP-dependent protein kinase 1 (Homo sapiens, UniProt Q13976).
T1 sequence (Q13976 whole entry): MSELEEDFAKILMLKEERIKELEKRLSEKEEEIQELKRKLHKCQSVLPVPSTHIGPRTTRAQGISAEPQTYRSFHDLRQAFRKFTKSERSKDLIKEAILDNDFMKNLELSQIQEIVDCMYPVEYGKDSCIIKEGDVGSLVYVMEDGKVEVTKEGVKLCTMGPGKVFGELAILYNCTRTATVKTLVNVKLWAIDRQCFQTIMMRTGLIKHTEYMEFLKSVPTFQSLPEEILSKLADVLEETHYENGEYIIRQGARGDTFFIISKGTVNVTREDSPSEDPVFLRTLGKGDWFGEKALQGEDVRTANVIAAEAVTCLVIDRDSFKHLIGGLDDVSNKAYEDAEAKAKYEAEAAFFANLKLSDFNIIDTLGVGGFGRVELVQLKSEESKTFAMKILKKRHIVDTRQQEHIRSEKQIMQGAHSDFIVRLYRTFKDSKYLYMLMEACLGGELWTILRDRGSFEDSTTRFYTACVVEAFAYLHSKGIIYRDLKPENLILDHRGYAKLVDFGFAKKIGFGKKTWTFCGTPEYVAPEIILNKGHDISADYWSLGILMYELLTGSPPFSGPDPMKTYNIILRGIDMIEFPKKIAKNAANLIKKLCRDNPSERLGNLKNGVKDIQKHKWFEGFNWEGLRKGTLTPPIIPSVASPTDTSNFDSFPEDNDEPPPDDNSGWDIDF
The experiment in a line: Activation of basal state recombinant PKG1alpha (unknown origin) using Glass-tide peptide substrate incubated for 30 mins followed by ATP addition and measured after 2 hr by ADP-GLO Max Assay.

In series [2] the target is T1, cGMP-dependent protein kinase 1. The experiment in a line: Activation of cGMP induced partially activated state recombinant PKG1alpha (unknown origin) using Glass-tide peptide substrate incubated for 30 mins followed by ATP addition and measured after 2 hr in presence of cGMP by ADP-GLO Max Assay.
Series [3] can be described thus: Protein binding in Wistar Han male rat plasma at 0.05 mg/kg, iv and measured upto 8 hrs post dose by LC-MS/MS analysis. The series is classed as ADME, organism-based. Conditions: read-out: PPB (converted).
The nature of series [4]: Solubility of compound in FaSSIF. The series is classed as physicochemical.
Series [5] is described as follows: MRT in Wistar Han male rat plasma at 0.05 mg/kg, iv and measured upto 8 hrs post dose by LC-MS/MS analysis. It is filed as ADME, organism-based.
Series [6] can be described thus: Clearance in Wistar Han male rat plasma at 0.05 mg/kg, iv and measured upto 8 hrs post dose by LC-MS/MS analysis. The series is classed as ADME, organism-based.
The nature of series [7]: Apparent permeability in dog MDCK-II cells. It is filed as ADME, cell-based, Canis lupus familiaris.
Series [8] in a line: Solubility of compound at pH 7. It is filed as physicochemical. Conditions: buffer.
The nature of series [9]: Solubility of compound at pH 2. It is filed as physicochemical. To be noted: buffer.
A short description of series [10]: Volume of distribution in Wistar Han male rat plasma at 0.05 mg/kg, iv and measured upto 8 hrs post dose by LC-MS/MS analysis. It is filed as ADME, organism-based.
Series [11] concerns the target T1, cGMP-dependent protein kinase 1.
Description: Activation of PKG1alpha in human HEK293 cells stably expressing VASP assessed as VSAP phosphorylation at Ser 239 incubated for 45 mins by HTRF assay
A short description of series [12]: Clearance in Wistar Han male rat plasma at 1 mg/kg, iv or 5 mg/kg, po and measured upto 8 hrs post dose by LC-MS/MS analysis. It is filed as ADME, organism-based.
The nature of series [13]: Volume of distribution in Wistar Han male rat plasma at 1 mg/kg, iv or 5 mg/kg, po and measured upto 8 hrs post dose by LC-MS/MS analysis. It is filed as ADME, organism-based.
The nature of series [14]: Oral bioavailability in Wistar Han male rat plasma at 5 mg/kg and measured upto 8 hrs by LC-MS/MS analysis. It is filed as ADME, organism-based.
Series [15] in a line: MRT in Wistar Han male rat plasma at 1 mg/kg, iv and measured upto 8 hrs post dose by LC-MS/MS analysis. It is filed as ADME, organism-based.
Series [16] is described as follows: Protein binding in Wistar Han male rat plasma at 1 mg/kg, iv or 5 mg/kg, po and measured upto 8 hrs post dose by LC-MS/MS analysis. The series is classed as ADME, organism-based. Conditions: read-out: PPB.

Structures are written as SMILES. ≈ marks a conversion by molar mass, not a printed value. Where only a bound is given, the exact number is not on record here.

For `Cc1cc(C(=O)O)ccc1CN1CC[C@H](OC(CO)c2cc(Cl)cc(Cl)c2)[C@@H]1c1ccccc1` (stereo not given in full), the values for the EC50 in [1] and in series [2] were 185 µM and 133 µM, respectively.
Regarding `O=C(O)c1ccc(CN2CCC[C@H](O[C@H](CO)c3cc(Cl)cc(Cl)c3)[C@@H]2c2ccccc2)c([N+](=O)[O-])c1`, the fraction unbound at 8 h in series [3] is less than 0.001. In addition, the figures for the solubility in [4], in series [8] and in series [9] were 112 µM (≈ 61.1 µg/mL), 110 µM (≈ 60 µg/mL) and 172 µM (≈ 93.8 µg/mL), respectively. In addition, the MRT in series [5] turned out to be 0.9 h. Besides, the clearance in [6] came out at 8.1 mL/min/kg. Further, in [7], the Papp stood at 10 ×10⁻⁶ cm/s. In addition, the Vd in series [10] is 0.45 L/kg.
In the case of `Cc1cc(C(=O)O)ccc1CN1CCC[C@H](O[C@H](CO)c2cc(Cl)cc(Cl)c2)[C@@H]1c1ccc(F)cc1`, the EC50 in [2] amounted to 18 µM.
As to `Cc1cc(C(=O)O)ccc1CN1CCC[C@H](O[C@H](CO)c2cc(Cl)cc(Cl)c2)[C@@H]1c1cccnc1` (racemic), the EC50 in series [2] amounted to 47 µM.
Turning to `COc1cccc([C@@H](CO)O[C@H]2CCCN(Cc3ccc(C(=O)O)cc3C)[C@H]2c2ccccc2)c1`, the figures for the EC50 in [1] and in series [2] were more than 200 µM and 81 µM, respectively.
With `Cc1cc(C(=O)O)ccc1CN1C(C)CC[C@H](O[C@H](CO)c2cc(Cl)cc(Cl)c2)[C@@H]1c1ccccc1` (stereo not given in full), the figures for the EC50 in [1] and in series [2] were 130 µM and 36 µM, respectively.
Consider `O=C(O)C12CC(CN3CCC[C@H](O[C@H](CO)c4cc(Cl)cc(Cl)c4)[C@@H]3c3ccccc3)(C1)C2`, for which the EC50 in [1] was more than 200 µM; in [2], 12 µM.
`Cc1cc(C(=O)O)ccc1CN1C(=O)CC[C@H](OCc2cc(Cl)cc(Cl)c2)[C@@H]1c1ccccc1`: the figures for the EC50 in series [1] and in series [2] were more than 200 µM and 169 µM, respectively.
As to `Cc1cc(C(=O)O)ccc1C(C)N1CCC[C@H](O[C@H](CO)c2cc(Cl)cc(Cl)c2)[C@@H]1c1ccccc1` (stereo not given in full), the EC50 in [2] turned out to be 18 µM.
Take `Cc1cc(C(=O)O)ccc1CN1CCC[C@H](O[C@H](CO)c2cc(Cl)cc(Cl)c2)[C@@H]1C1CCCCC1`: the EC50 in [1] was more than 200 µM; in series [2], 65 µM.
Turning to `Cc1cc(C(=O)O)ccc1CN1CCC[C@@]2(C[C@@H](c3ccccc3)CO2)[C@@H]1c1ccccc1`, the EC50 in series [1] is more than 200 µM; in series [2] it was 43 µM.
`OC[C@@H](O[C@H]1CCCN(Cc2ncc[nH]2)[C@H]1c1ccccc1)c1cc(Cl)cc(Cl)c1`: the EC50 in series [1] is more than 200 µM; in series [2], 47 µM; in [11], more than 164 µM. Further, the apparent permeability coefficient (Papp) in series [7] was found to be 2 ×10⁻⁶ cm/s. In addition, in series [8], the solubility amounted to 120 µM (≈ 53.6 µg/mL).
As to `O=C(O)c1ccc(CN2CCC[C@H](O[C@H](CO)c3cc(Cl)cc(Cl)c3)[C@@H]2c2ccccc2)cc1`, the EC50 in [1] came out at 77 µM. The molecule further gave a solubility in [8] of 85 µM (≈ 42.5 µg/mL).
As for `CC(=O)NS(=O)(=O)c1ccc(CN2CCC[C@H](O[C@H](CO)c3cc(Cl)cc(Cl)c3)[C@@H]2c2ccccc2)cc1`, the EC50 in series [1] was more than 200 µM; in [2] it was 14 µM.
As to `Cc1cc(C(=O)O)ccc1CN1CCC[C@H](O[C@H](CO)c2ccnc(Cl)c2)[C@@H]1c1ccccc1`, the EC50 in [1] is more than 200 µM; in series [2] it was 50 µM.
For `Cc1cc(C(=O)O)ccc1CN1CCC[C@H](OC(c2cc(Cl)cc(Cl)c2)C(C)(C)O)[C@@H]1c1ccccc1` (stereo not given in full), in that order: 121 µM and 17 µM.
For `Cc1cc(C(=O)O)ccc1C(=O)N1CCC[C@H](O[C@H](CO)c2cc(Cl)cc(Cl)c2)[C@@H]1c1ccccc1`, in that order: more than 200 µM and more than 200 µM.
For `Cc1cc(C(=O)O)ccc1CN1CCC[C@H](O[C@H](CO)c2cc(Cl)cc(Cl)c2)[C@@H]1c1ccccc1`, the clearance in series [12] is 2.5 mL/min/kg. Moreover, in [13], the Vd stood at 0.33 L/kg. Moreover, the solubility in series [4] stood at 36 µM (≈ 18.5 µg/mL); in series [8], 157 µM (≈ 80.8 µg/mL); in series [9], 196 µM (≈ 101 µg/mL). Further, in [14], the bioavailability came out at 62%. The molecule further gave an MRT in [15] of 2.3 h. For the same molecule, in series [7], the Papp is 22 ×10⁻⁶ cm/s. Further, the fraction unbound at 8 h in [16] came out at 0.001.
With `Cc1cc(C(=O)O)ccc1CN1CCC[C@H](O[C@H](CO)c2ccccc2)[C@@H]1c1ccccc1`, the EC50 in series [1] is more than 200 µM; in series [2] it was 25 µM.
On to `Cc1cc(C(=O)O)ccc1CN1CCC[C@H](O[C@H](CO)c2cc(Cl)cc(Cl)c2)[C@@H]1c1cccc(F)c1`, for which the EC50 in [2] was found to be 12 µM.
As for `Nc1cc(C(=O)O)ccc1CN1CCC[C@H](O[C@H](CO)c2cc(Cl)cc(Cl)c2)[C@@H]1c1ccccc1`, the fraction unbound at 8 h in series [3] was 0.002. In addition, the solubility in [4] came out at 137 µM (≈ 70.6 µg/mL); in [8], 78 µM (≈ 40.2 µg/mL); in series [9] it was 126 µM (≈ 64.9 µg/mL). The molecule further gave an MRT in [5] of 1.9 h. In [6], this molecule gave a clearance of 4.4 mL/min/kg. For the same molecule, the Papp in [7] turned out to be 21 ×10⁻⁶ cm/s. The same molecule returned a Vd in series [10] of 0.5 L/kg.

These data come from ChEMBL document CHEMBL5137073, “Optimization and Mechanistic Investigations of Novel Allosteric Activators of PKG1α” (J Med Chem, 2022).
